In PubChem BioAssay (NCI):
Several values for one entry are separate records, joined by “and”; a condition that tells them apart may be missing. Identical values can stand only once.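 All cell lines were grown in 96-well plates and treated with compound for 48 hours. GI50 is the concentration that inhibits growth by half. At the TGI there is no net growth.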

Columns and labels:
Assay in all cases: inhibition of tumour cell growth, NCI panel, 48 h
[1] = test system: HOP-92 NSCLC
[2] = test system: HT29 colon
[3] = test system: KM12 colon
[4] = test system: MOLT-4 leukemia
[5] = test system: NCI-H460 lung
[6] = test system: RXF 393 renal
[7] = test system: SF-268 CNS
[8] = test system: SK-MEL-2 melanoma
[9] = test system: SNB-75 CNS
[10] = test system: SW-620 colon

SMILES	TGI [1]	TGI [2]	TGI [3]	TGI [4]	TGI [5]	TGI [6]	TGI [7]	TGI [8]	TGI [9]	TGI [10]	GI50 [1]	GI50 [2]	GI50 [3]	GI50 [4]	GI50 [5]	GI50 [6]	GI50 [7]	GI50 [8]	GI50 [9]	GI50 [10]
COc1ccc(OC(=O)N2C/C(=C\c3ccccc3)C(=O)/C(=C/c3ccccc3)C2)cc1	40.1 µM	3.73 µM	4.18 µM	8.06 µM	13.7 µM	8.71 µM	15.2 µM	45.6 µM	32.6 µM	2.89 µM										
CCN1CCN(Cc2ccc(Nc3ncc(F)c(-c4cc(F)c5nc(C)n(C(C)C)c5c4)n3)nc2)CC1	50 µM	10.8 µM	9.29 µM	9.85 µM	12.7 µM	8.34 µM	13.9 µM	> 50 µM	6.68 µM	11.9 µM	0.0337 µM	0.268 µM	0.56 µM	0.156 µM	0.959 µM	0.389 µM	5.32 µM	> 50 µM	0.094 µM	0.192 µM
c1cc[n+](Cc2c3ccccc3cc3c2ccc2ccccc23)cc1	6.97 µM	11.2 µM	11.8 µM	14.7 µM	11.9 µM	47.5 µM	5.48 µM	4.69 µM	5.36 µM	21.9 µM	1.56 µM	2.77 µM	3.09 µM	3.26 µM	3.26 µM	8.61 µM	1.13 µM	2.14 µM	1.35 µM	6.16 µM
COc1ccc(-c2cc(=O)c3c(OC)c4ccoc4c(/C=C/C=O)c3o2)cc1	98.7 µM	> 100 µM	25.7 µM	5.97 µM	39.4 µM	4.49 µM	87.2 µM	84.6 µM	20.6 µM	10.4 µM	16.8 µM	18.1 µM	12.3 µM	1.84 µM	4.7 µM	2.15 µM	4.38 µM	9.06 µM	3.13 µM	2.3 µM
CSC1=CC(=O)c2ccccc2C1=O	2.19 µM	65.2 µM	22.5 µM	4.86 µM	> 100 µM	2.9 µM	22.1 µM	33.7 µM	24.2 µM	8.13 µM	0.811 µM	26.3 µM	6.75 µM	1.64 µM	31.3 µM	1.54 µM	8.85 µM	11.6 µM	11.6 µM	2.49 µM
CS(=O)(=O)Nc1cc(-c2ccc3ncc(C#N)c(Nc4ccc(F)c(Cl)c4)c3c2)cnc1Cl	0.61 µM	2.3 µM	1.91 µM	0.487 µM	> 29.1 µM	0.6 µM		0.53 µM	0.507 µM	4.31 µM	0.0333 µM	0.29 µM	0.276 µM	0.0783 µM	0.301 µM	0.125 µM	0.133 µM	0.133 µM	0.0251 µM	0.107 µM
C[n+]1cccc(NC(=O)c2ccc3ccc4ccc(C(=O)Nc5ccc[n+](C)c5)nc4c3n2)c1	> 65.1 µM	> 100 µM	> 100 µM	> 100 µM	3.42 µM	4.75 µM	42.1 µM	> 100 µM	9.9 µM	> 100 µM	7.15 µM	2.38 µM	3.08 µM	21.3 µM	0.149 µM	1.98 µM	3.82 µM	6.71 µM	1.15 µM	2.91 µM
CC(C)c1cnc(-c2cc(Cl)ccc2F)cc1Nc1ccncc1C(=O)NC(CO)CO	35.4 µM	33.7 µM	37.4 µM	39.3 µM	28.3 µM	27 µM	33 µM	38.5 µM	25.9 µM	39.5 µM	1.33 µM	14.6 µM	17.7 µM	11.7 µM	12.5 µM	10.3 µM	12.3 µM	18 µM	0.0515 µM	19.6 µM
Cc1ccc(C2=NN(c3ccc(S(=O)(=O)NC(=O)NCc4ccccc4)cc3)C(c3ccc(N(C)C)cc3)C2)c(C)c1 (stereo unspecified)	8.58 µM	19.1 µM	15.4 µM	73.8 µM	10.4 µM	9.8 µM	45.1 µM	8.85 µM	> 100 µM	23.7 µM	2.64 µM	4.53 µM	3.49 µM	3.65 µM	3.33 µM	3 µM	4.37 µM	3.32 µM	2.44 µM	3.94 µM
COc1cc(/C=C2\CC3C4CCC5=CC(=O)CC[C@]5(C)C4CC[C@]3(C)C2=O)ccc1OCCN1CCCC1 (stereo partly specified)	3.87 µM	> 28.5 µM	4.77 µM	1.84 µM	> 37.5 µM	5.41 µM	19.4 µM	14.8 µM	11.1 µM	11.5 µM	1.41 µM	2.5 µM	1.92 µM	0.689 µM	3.57 µM	2.24 µM	3.41 µM	4.21 µM	3.47 µM	3.09 µM
C#CN1C(=O)c2c(c(-c3ccccc3)c(-c3ccc(Oc4ccc(-c5c(-c6ccccc6)c6c(c(-c7ccccc7)c5-c5ccccc5)C(=O)N(C#C)C6=O)cc4)cc3)c(-c3ccccc3)c2-c2ccccc2)C1=O	> 100 µM	> 100 µM	> 100 µM	> 100 µM	> 100 µM	> 100 µM	> 100 µM	> 100 µM	> 100 µM	> 100 µM										
COc1ccc(N=Nc2ccc(O)c(=O)cc2)cc1	> 100 µM	49.7 µM	> 100 µM	> 100 µM	18.9 µM	> 100 µM	> 100 µM	41.1 µM	> 100 µM	> 100 µM	2.66 µM	4.83 µM	3.66 µM	3.69 µM	1.79 µM	3.71 µM	3.62 µM	5.01 µM	3.43 µM	4.08 µM
Cc1[nH]c(C(=O)Nc2cccc(OC3CCNCC3)c2)c(Cl)c1Cl	4 µM	4.44 µM	3.73 µM	4.12 µM	3.7 µM	3.46 µM	3.75 µM	4.54 µM	2.65 µM	3.64 µM	1.32 µM	1.92 µM	1.93 µM	1.94 µM	1.95 µM	1.74 µM	1.77 µM	2.14 µM	1.13 µM	1.88 µM
COc1ccc2[nH]c(C(=O)OCc3ccc4c(Br)cc(Br)c(O)c4n3)cc2c1	1.75 µM	1.49 µM	3.38 µM	2.17 µM	3.18 µM	1.8 µM	2.92 µM	3.12 µM	1.73 µM	1.41 µM	0.352 µM	0.39 µM	1.64 µM	0.452 µM	1.48 µM	0.486 µM	1.48 µM	1.55 µM	0.307 µM	0.364 µM
Nc1c(C(=O)Nc2cccc(Cl)c2)sc2nc3c(cc12)C(O)CCC3 (stereo unspecified)	38.2 µM	12.2 µM	> 49.9 µM	> 57.7 µM	16.8 µM	2.87 µM	39.1 µM	48.6 µM	21.6 µM	> 89.3 µM	0.824 µM	0.315 µM	0.397 µM	0.488 µM	0.388 µM	0.396 µM	0.754 µM	0.585 µM	0.373 µM	0.48 µM
Nc1nc2ccc(CNc3ccc(C(=O)NC(CC(=O)O)C(=O)O)cc3)cc2c(=O)[nH]1 (stereo unspecified)	> 100 µM	> 100 µM	> 100 µM	> 100 µM	> 100 µM	> 100 µM	> 100 µM	> 100 µM	> 100 µM	> 100 µM	> 51 µM	0.67 µM	4.3 µM	16.3 µM	0.593 µM	> 34.7 µM	5 µM	> 100 µM	> 100 µM	0.525 µM
O=C(O)CN1C(=O)OC(c2ccccc2)C1=O (stereo unspecified)	> 100 µM	> 100 µM	> 100 µM	> 100 µM	> 100 µM	> 100 µM	> 100 µM	> 100 µM	> 100 µM	> 100 µM										
CCCCCCCCCCCCC(O)C1CCC(C(O)CCCCC(O)CCCCCC2CC(CC(C)=O)C(=O)O2)O1 (stereo unspecified)	9.29 µM and 12.5 µM	2.65 µM and 15.4 µM	4.89 µM and 20.5 µM	35 µM	> 43.8 µM	21.4 µM	4.45 µM and 17.1 µM	2.88 µM and 15.8 µM	5.42 µM and 16.4 µM	25.4 µM	3.38 µM	1.37 µM	7.64 µM	1.94 µM and 2.05 µM		5.33 µM	1.37 µM	1.36 µM	1.25 µM	3.29 µM
O=S(=O)(NCCNc1nccc(-c2c(-c3ccc(F)cc3)nc3sccn23)n1)c1ccc(O)cc1	9.07 µM	37.4 µM	14.2 µM	15.7 µM	27.8 µM	24.8 µM	56.2 µM	17.3 µM	13.1 µM	41.8 µM	1.31 µM	2.09 µM	2.05 µM	3.21 µM	0.845 µM	4.27 µM	3.99 µM	4.18 µM	1.68 µM	4.47 µM
CC(=O)Oc1ccc(C2OC(c3ccc4ccccc4c3OC(C)=O)=NN2C(C)=O)c(OC(C)=O)c1 (stereo unspecified)	> 29.5 µM	> 52.8 µM	> 57.6 µM	> 100 µM	> 36 µM	16.3 µM	> 46 µM	> 48.7 µM	> 31.4 µM	> 43.3 µM	0.252 µM	1.62 µM	0.536 µM	0.454 µM	0.346 µM	0.432 µM	0.31 µM	0.602 µM	1.13 µM	0.455 µM
CCOC(=O)c1c(C)n([O-])c2cc(F)c(F)cc2[n+]1=O	3.08 µM	3.19 µM	35.6 µM	6.62 µM	15.9 µM	5.76 µM	3.69 µM		3.54 µM	1.57 µM	1.1 µM	0.516 µM	15.4 µM	0.541 µM	2.88 µM	1.8 µM	1.57 µM	2.8 µM	1.91 µM	0.428 µM
COc1ccccc1/C=C1\CCC(Cc2ccccc2)(CN(C)C)C1=O (stereo unspecified)	66.2 µM	5.55 µM	15.9 µM	38.9 µM	12.8 µM	51 µM	> 100 µM	34.8 µM	> 88.9 µM	35.2 µM										
CC[C@]12C=CCN3CC[C@]4(C(=C(C(=O)OC)C1)Nc1cc5c(cc14)[C@@H]1[C@H](O5)[C@@H](O)[C@@]4(CC)CC(C(=O)OC)=C5Nc6ccccc6[C@@]56CCN1[C@@H]46)[C@@H]32	12.4 µM and 9.48 µM		8.41 µM and 5.92 µM	25 µM and > 100 µM	7.05 µM and 11.9 µM	3.76 µM and 2.56 µM	19.7 µM and 54.5 µM	25 µM and > 100 µM	25 µM and 18.7 µM	13.5 µM and 7.85 µM	0.114 µM and 0.138 µM	0.13 µM and 0.186 µM	0.76 µM and 0.471 µM	0.432 µM and 0.338 µM	1.05 µM and 1.13 µM	0.523 µM and 0.456 µM	1.15 µM and 1.2 µM	1.13 µM and 1.18 µM	0.0335 µM and 0.161 µM	0.868 µM and 0.495 µM
COc1cc2c(Nc3ccc(-c4ccc(N)cc4)cc3)ncnc2c(OC)c1OC	> 100 µM	> 81.7 µM	41.6 µM	> 100 µM	> 66.4 µM	> 95.9 µM	> 100 µM	> 78.1 µM	64.9 µM	> 100 µM	18.3 µM	8.02 µM	0.615 µM	4.05 µM	2.89 µM	24.9 µM	19.1 µM	4.96 µM	16.6 µM	0.733 µM
COc1ccccc1CNCCCN1C(=O)c2ccc3c4c(ccc(c24)C1=O)C(=O)N(CCCNCCCCNCCCN)C3=O	5.23 µM	0.995 µM	1.46 µM	8.31 µM	1.5 µM	1.39 µM	3.61 µM	0.591 µM	1.86 µM	1.28 µM	0.67 µM	0.287 µM	0.338 µM	0.57 µM	0.36 µM	0.323 µM	0.333 µM	0.227 µM	0.609 µM	0.26 µM
NNC(=O)/C(NC(=O)c1ccccc1)=C(\N)c1cccc([N+](=O)[O-])c1	> 100 µM	> 100 µM	> 100 µM	> 100 µM	> 100 µM	> 100 µM	> 100 µM	> 100 µM	> 100 µM	> 100 µM										
